“And” between values parts separate entries of the source, which are not always exact repeats. Identical values can stand only once.
What was measured:
[1] = system: mouse colon cancer Colon 26 cells; assay: In vivo antitumor effect against Colon 26; conditions: average tumor volume treated/untreated, 11 days after treatment, 30 mg/kg in terms of paclitaxel, tail vein, 5 consecutive days, female CDF1 mice
Protocol: Female CDF1 mice were inoculated subcutaneously at the back thereof with the mouse colon cancer Colon 26 cells, and, from the point of time when the volume of tumor has reached around 100 mm^3, micellar preparation 10 according to the invention, the micellar composition from Comparative Example, or paclitaxel was administered through the tail veins of the mice for consecutive 5 days to examine effects against advanced cancer. Each agent was used directly, or after dilution with saline before use. The concentration of each agent was expressed in terms of paclitaxel. The antitumor effect of agent was judged on the basis of a percentage of the average tumor volume in treated group to the average tumor volume in untreated group (T/C %) 11 days after agent treatment.

[2] = Transition of paclitaxel concentrations in the rat plasma; type: in vivo; conditions: intravenous, 5 mg/kg paclitaxel equivalent, tail vein, male SD rats
Protocol: Micellar preparation 10 from Example 9 was diluted with normal saline solution to make an aqueous solution having a concentration of 2.5 mg/mL in terms of paclitaxel. Paclitaxel alone was dissolved in ethanol, to which Cremophor (Sigma) was then added in the same amount as ethanol to prepare in such a way that the concentration of paclitaxel was adjusted to 25 mg/mL, followed by dilution to 2.5 mg/mL with normal saline solution immediately before administration. Micellar preparation 10 or paclitaxel alone was administered in an amount equivalent to paclitaxel 5 mg/kg to male SD rats through their tail veins, followed by taking blood samples from their cervical veins with time. The plasma obtained by centrifugation was diluted with an appropriate amount of water and subjected to three rounds of extraction with t-butyl methyl ether. The ether layer was recovered, dried up, and then dissolved in 50 μL of actonitrile, followed by quantitating paclitaxel using HPLC.

female CDF1 mice = assay: Toxicity test against mouse extension reflex (peripheral nerve impairment); type: in vivo; conditions: 30 mg/kg in terms of paclitaxel, tail vein, 5 consecutive days, hind limbs
Protocol: Micellar preparation 10 or paclitaxel alone was administered to female CDF1 mice through their tail veins for consecutive 5 days to observe the extension reflex of their hind limbs providing an indication of peripheral nerve impairment due to paclitaxel. Each agent was prepared as described in Test Example 1, and used directly, or after dilution with saline before use. The dosages used were expressed in terms of paclitaxel.

AUC(0-t) ([2]; read-out: AUC (0-360) (converted)): 1170 ng·h/mL
concentration at 10 min ([2]; blood drawing time 10 min): 1050 ng/mL
concentration at 30 min ([2]; blood drawing time 30 min): 510 ng/mL
concentration at 60 min ([2]; blood drawing time 60 min): 260 ng/mL
concentration at 120 min ([2]; blood drawing time 120 min): 100 ng/mL
concentration at 360 min ([2]; blood drawing time 360 min): 35 ng/mL
Structure (SMILES): CC(=O)O[C@H]1C(=O)[C@@]2(C)[C@H]([C@H](OC(=O)c3ccccc3)[C@]3(O)C[C@H](OC(=O)[C@H](O)[C@@H](NC(=O)c4ccccc4)c4ccccc4)C(C)=C1C3(C)C)[C@]1(OC(C)=O)CO[C@@H]1C[C@@H]2O [Paclitaxel, paclitaxel]
T/C (%) [1]: 40.0% and 37.5%
T/C (%) ([1]; listed as paclitaxel alone): 37.5% and 40.0%
Mice showing extension reflex disappearance (female CDF1 mice): 3/3
Mice showing extension reflex disappearance (female CDF1 mice; listed as paclitaxel alone): induced the disappearance of extension reflex in all mice

Reference: US7820759B2, “Micellar preparation containing sparingly water-soluble anticancer agent and novel block copolymer” (Nippon Kayaku Kabushiki Kaisha, priority 2003, dated 2010)
